≈ marks a conversion by molar mass, not a printed value. Calls of active or inactive are those of the source. No cut-off for these calls is given here. Where a SMILES comes first, the peptide text is derived from it. [ ]: non-standard residue; d: D form. Bip = N[C@@H](Cc1ccc(-c2ccccc2)cc1)C(=O)O
Columns and labels:
[1] = tested on: Staphylococcus aureus; assay: Antibiofilm activity against Staphylococcus aureus clinical isolate USA300 assessed as inhibition of bacterial attachment at 25 uM incubated for 1 hr by XTT/PMS assay; assay type: functional, organism-based
[2] = tested on: Staphylococcus aureus; assay: Antibiofilm activity against Staphylococcus aureus clinical isolate USA300 assessed as disruption of 72 hr-preformed biofilm at 6.2 uM incubated for 24 hrs by XTT assay in presence of 1.6 uM daptomycin; assay type: functional, organism-based
[3] = tested on: Staphylococcus aureus; assay: Antibiofilm activity against Staphylococcus aureus clinical isolate USA300 assessed as disruption of 72 hr-preformed biofilm at 6.2 uM incubated for 24 hrs by XTT assay in presence of 1.6 uM vancomycin; assay type: functional, organism-based
[4] = tested on: Staphylococcus aureus; assay: Antibacterial activity against Staphylococcus aureus clinical isolate USA300 incubated for 20 hrs by microplate reader analysis; assay type: functional; conditions: isolate USA300, 20 h
[5] = tested on: Staphylococcus aureus; assay: Antibacterial activity against Staphylococcus aureus clinical isolate USA200 incubated for 20 hrs by microplate reader analysis; assay type: functional; conditions: isolate USA200, 20 h
[6] = tested on: Staphylococcus aureus; assay: Antibiofilm activity against Staphylococcus aureus clinical isolate UAMS-1 assessed as 24 hr preformed biofilm disruption at 3.1 to 25 uM incubated for 24 hrs by XTT assay; assay type: functional, organism-based
[7] = tested on: Staphylococcus aureus; assay: Antibacterial activity against Staphylococcus aureus clinical isolate USA400 incubated for 20 hrs by microplate reader analysis; assay type: functional; conditions: isolate USA400, 20 h
[8] = tested on: Staphylococcus aureus; assay: Antibacterial activity against Staphylococcus aureus Mu50 incubated for 20 hrs by microplate reader analysis; assay type: functional; conditions: Mu50, 20 h
[9] = tested on: HaCaT; assay: Cytotoxic activity against human HaCaT cells assessed as reduction in cell viability at 20 to 100 uM incubated for 1 hr by MTS assay; assay type: cell-based
[10] = tested on: Staphylococcus aureus; assay: Antibacterial activity against Staphylococcus aureus Newman incubated for 20 hrs by microplate reader analysis; assay type: functional
[11] = Hemolytic activity against human RBC after 1 hr by microplate reader analysis; assay type: ADME, cell-based, Erythrocyte; conditions: red blood cells
[12] = tested on: Staphylococcus aureus; assay: Inhibition of biofilm formation in Staphylococcus aureus clinical isolate USA300 at 3.1 to 25 uM incubated for 24 hrs by XTT/PMS assay; assay type: functional, organism-based
[13] = tested on: Staphylococcus aureus; assay: Antibiofilm activity against Staphylococcus aureus Newman assessed as 24 hr preformed biofilm disruption at 3.1 to 25 uM incubated for 24 hrs by XTT assay; assay type: functional, organism-based
[14] = tested on: Staphylococcus aureus; assay: Antibiofilm activity against Staphylococcus aureus Mu50 assessed as 24 hr preformed biofilm disruption at 3.1 to 25 uM incubated for 24 hrs by XTT assay; assay type: functional, organism-based
[15] = tested on: Staphylococcus aureus; assay: Antibiofilm activity against Staphylococcus aureus clinical isolate USA200 assessed as 24 hr preformed biofilm disruption at 3.1 to 25 uM incubated for 24 hrs by XTT assay; assay type: functional, organism-based
[16] = tested on: Staphylococcus aureus; assay: Antibiofilm activity against Staphylococcus aureus clinical isolate USA400 assessed as 24 hr preformed biofilm disruption at 3.1 to 25 uM incubated for 24 hrs by XTT assay; assay type: functional, organism-based
[17] = tested on: Staphylococcus aureus; assay: Antibiofilm activity against Staphylococcus aureus clinical isolate USA300 assessed as 24 hr preformed biofilm disruption at 3.1 to 25 uM incubated for 24 hrs by XTT assay; assay type: functional, organism-based
[18] = tested on: Staphylococcus aureus; assay: Antibacterial activity against Staphylococcus aureus clinical isolate UAMS-1 incubated for 20 hrs by microplate reader analysis; assay type: functional; conditions: isolate UAMS-1, 20 h
[19] = tested on: Staphylococcus aureus; assay: Antibiofilm activity against Staphylococcus aureus clinical isolate USA300 assessed as dead cells at 3.1 to 25 uM incubated for 24 hrs by SYTO 9/propidium iodide staining based confocal laser scanning microscopy; assay type: functional, organism-based
[20] = tested on: Staphylococcus aureus; assay: Antibiofilm activity against Staphylococcus aureus JE2 assessed as 24 hr preformed biofilm disruption at 3.1 to 25 uM incubated for 24 hrs by XTT assay; assay type: functional, organism-based
[21] = tested on: Staphylococcus aureus; assay: Antibiofilm activity against Staphylococcus aureus harboring fnbA mutant assessed as inhibition of bacterial attachment at 3.1 to 25 uM incubated for 24 hrs by XTT/PMS assay; assay type: functional, organism-based
[22] = tested on: Staphylococcus aureus; assay: Antibiofilm activity against Staphylococcus aureus clinical isolate USA300 assessed as 24 hr preformed biofilm disruption at 12.5 to 25 uM incubated for 24 hrs by XTT assay; assay type: functional, organism-based
[23] = tested on: Staphylococcus aureus; assay: Antibiofilm activity against Staphylococcus aureus Newman assessed as 24 hr preformed biofilm disruption at 12.5 to 25 uM incubated for 24 hrs by XTT assay; assay type: functional, organism-based
[24] = tested on: Staphylococcus aureus; assay: Antibiofilm activity against Staphylococcus aureus harboring […] mutant assessed as 24 hr preformed biofilm disruption at 3.1 to 25 uM incubated for 24 hrs by XTT assay; assay type: functional, organism-based
[25] = tested on: Staphylococcus aureus; assay: Antibiofilm activity against Staphylococcus aureus clinical isolate USA400 assessed as 24 hr preformed biofilm disruption at 12.5 to 25 uM incubated for 24 hrs by XTT assay; assay type: functional, organism-based
[26] = tested on: Staphylococcus aureus; assay: Antibiofilm activity against Staphylococcus aureus harboring fnbA mutant assessed as 24 hr preformed biofilm disruption at 3.1 to 25 uM incubated for 24 hrs by XTT assay; assay type: functional, organism-based
[27] = tested on: Staphylococcus aureus; assay: Antibiofilm activity against Staphylococcus aureus harboring sasC mutant assessed as 24 hr preformed biofilm disruption at 3.1 to 25 uM incubated for 24 hrs by XTT assay; assay type: functional, organism-based
[28] = tested on: Staphylococcus aureus; assay: Antibiofilm activity against Staphylococcus aureus harboring […] mutant assessed as inhibition of bacterial attachment at 3.1 to 25 uM incubated for 24 hrs by XTT/PMS assay; assay type: functional, organism-based
[29] = tested on: Staphylococcus aureus; assay: Antibiofilm activity against Staphylococcus aureus harboring sasC mutant assessed as inhibition of bacterial attachment at 3.1 to 25 uM incubated for 24 hrs by XTT/PMS assay; assay type: functional, organism-based
[30] = tested on: Staphylococcus aureus; assay: Antibiofilm activity against Staphylococcus aureus JE2 assessed as inhibition of bacterial attachment at 3.1 to 25 uM incubated for 24 hrs by XTT/PMS assay; assay type: functional, organism-based
[31] = tested on: Staphylococcus aureus; assay: Antibiofilm activity against Staphylococcus aureus clinical isolate UAMS-1 assessed as 24 hr preformed biofilm disruption at 12.5 to 25 uM incubated for 24 hrs by XTT assay; assay type: functional, organism-based
[32] = tested on: Staphylococcus aureus; assay: Antibiofilm activity against Staphylococcus aureus clinical isolate USA200 assessed as 24 hr preformed biofilm disruption at 12.5 to 25 uM incubated for 24 hrs by XTT assay; assay type: functional, organism-based
[33] = tested on: Staphylococcus aureus; assay: Antibiofilm activity against Staphylococcus aureus Mu50 assessed as 24 hr preformed biofilm disruption at 12.5 to 25 uM incubated for 24 hrs by XTT assay; assay type: functional, organism-based
[34] = tested on: Staphylococcus aureus; assay: Inhibition of biofilm formation in Staphylococcus aureus clinical isolate USA300 at 3.1 uM incubated for 24 hrs by XTT/PMS assay relative to control; assay type: functional; conditions: isolate USA300, 24 h
[35] = tested on: Staphylococcus aureus; assay: Inhibition of biofilm formation in Staphylococcus aureus clinical isolate USA300 at 6.2 to 25 uM incubated for 24 hrs by XTT/PMS assay; assay type: functional, organism-based
[36] = tested on: Staphylococcus aureus; assay: Antibiofilm activity against Staphylococcus aureus clinical isolate USA300 assessed as inhibition of bacterial attachment at 3.1 to 25 uM incubated for 1 hr by XTT/PMS assay; assay type: functional, organism-based

SMILES	inhibition [1]	Activity [2]	Activity [3]	MIC [4] [µM]	MIC [5] [µM]	Activity [6]	MIC [7] [µM]	MIC [8] [µM]	Activity [9]	MIC [10] [µM]	HC50 at 1 h [11] [µM]	inhibition [12]	Activity [13]	Activity [14]	Activity [15]	Activity [16]	Activity [17]	MIC [18] [µM]	Activity [19]	further results
CC[C@H](C)[C@H](NC(=O)[C@H](CCCNC(=N)N)NC(=O)[C@H](CCC(N)=O)NC(=O)[C@@H](NC(=O)[C@@H](NC(=O)[C@H](CCCNC(=N)N)NC(=O)[C@H](CCCCN)NC(=O)[C@H](Cc1ccccc1)NC(=O)CN)[C@@H](C)CC)C(C)C)C(=O)N[C@@H](CCCCN)C(=O)N[C@@H](CC(=O)O)C(=O)N[C@@H](Cc1ccccc1)C(=O)N[C@@H](CC(C)C)C(=O)N[C@@H](CCCNC(=N)N)C(=O)N[C@@H](CC(N)=O)C(=O)N[C@@H](CC(C)C)C(=O)N[C@H](C(=O)O)C(C)C (H-GFKRIVQRIKDFLRNLV-OH)	Active	Active	Active	1.56 (≈ 3.28 µg/mL)	1.56 (≈ 3.28 µg/mL)	inactive	1.56 (≈ 3.28 µg/mL)	1.56 (≈ 3.28 µg/mL)	Non-toxic	1.56 (≈ 3.28 µg/mL)	120	Active	Active	Active	Active	Active	Active	3.1 (≈ 6.52 µg/mL)	Active	–
CC(C)C[C@H](NC(=O)[C@H](Cc1ccc(-c2ccccc2)cc1)NC(=O)[C@H](CC(=O)O)NC(=O)[C@H](CCCCN)NC(=O)[C@H](CC(C)C)NC(=O)[C@H](CCCNC(=N)N)NC(=O)[C@H](CCC(N)=O)NC(=O)[C@@H](NC(=O)[C@H](CC(C)C)NC(=O)[C@H](CCCNC(=N)N)NC(=O)[C@H](CCCCN)NC(=O)[C@H](Cc1ccc(-c2ccccc2)cc1)NC(=O)CN)C(C)C)C(=O)N[C@@H](CCCNC(=N)N)C(=O)N[C@@H](CC(N)=O)C(=O)N[C@@H](CC(C)C)C(=O)N[C@H](C(N)=O)C(C)C (H-G[Bip]KRLVQRLKD[Bip]LRNLV-NH2)	Active	Active	Active	3.1 (≈ 6.99 µg/mL)	3.1 (≈ 6.99 µg/mL)	–	3.1 (≈ 6.99 µg/mL)	3.1 (≈ 6.99 µg/mL)	Non-toxic	3.1 (≈ 6.99 µg/mL)	120	Active	–	–	–	–	–	3.1 (≈ 6.99 µg/mL)	Active	Activity [20]: Active; inhibition [21]: Active; Activity [22]: Active; Activity [23]: Active; Activity [24]: Active; Activity [25]: Active; Activity [26]: Active; Activity [27]: Active; inhibition [28]: Active; inhibition [29]: Active; inhibition [30]: Active; Activity [31]: Active; Activity [32]: Active; Activity [33]: Active
CC[C@H](C)[C@H](NC(=O)[C@H](CCCNC(=N)N)NC(=O)[C@H](CCC(N)=O)NC(=O)[C@@H](NC(=O)[C@@H](NC(=O)[C@@H](N)CCCNC(=N)N)[C@@H](C)CC)C(C)C)C(=O)N[C@@H](CCCCN)C(=O)N[C@@H](CC(=O)O)C(=O)N[C@@H](Cc1ccccc1)C(=O)N[C@@H](CC(C)C)C(=O)O (H-RIVQRIKDFL-OH)	Active	–	–	> 50	> 50	inactive	> 50	> 50	–	> 50	–	inactive	inactive	inactive	inactive	inactive	inactive	> 50	–	–
CC[C@H](C)[C@H](NC(=O)[C@H](CCCCN)NC(=O)[C@H](CCC(=O)O)NC(=O)[C@H](CCCCN)NC(=O)[C@H](CO)NC(=O)[C@H](CCCCN)NC(=O)[C@H](CCCNC(=N)N)NC(=O)[C@H](Cc1ccccc1)NC(=O)[C@H](Cc1ccccc1)NC(=O)[C@H](CC(=O)O)NC(=O)CNC(=O)[C@H](CC(C)C)NC(=O)[C@@H](N)CC(C)C)C(=O)NCC(=O)N[C@@H](CCCCN)C(=O)N[C@@H](CCC(=O)O)C(=O)N[C@@H](Cc1ccccc1)C(=O)N[C@@H](CCCCN)C(=O)N[C@@H](CCCNC(=N)N)C(=O)N[C@H](C(=O)N[C@H](C(=O)N[C@@H](CCC(N)=O)C(=O)N[C@@H](CCCNC(=N)N)C(=O)N[C@H](C(=O)N[C@@H](CCCCN)C(=O)N[C@@H](CC(=O)O)C(=O)N[C@@H](Cc1ccccc1)C(=O)N[C@@H](CC(C)C)C(=O)N[C@@H](CCCNC(=N)N)C(=O)N[C@@H](CC(N)=O)C(=O)N[C@@H](CC(C)C)C(=O)N[C@H](C(=O)N1CCC[C@H]1C(=O)N[C@@H](CCCNC(=N)N)C(=O)N[C@H](C(=O)N[C@@H](CCC(=O)O)C(=O)N[C@@H](CO)C(=O)O)[C@@H](C)O)C(C)C)[C@@H](C)CC)C(C)C)[C@@H](C)CC [CATHELICIDIN]	–	–	–	12.5 (≈ 56.2 µg/mL)	> 50	inactive	6.25 (≈ 28.1 µg/mL)	> 50	–	> 50	–	–	inactive	inactive	inactive	inactive	inactive	> 50	–	inhibition at 3.1 µM [34]: 50%; inhibition [35]: inactive; inhibition [36]: inactive
